Counter-ions that a name gives are not always drawn. Starred links: 1 amine or outer side, 2 acyl side, 3 side chain; linkers in the order of their positions; H or OH if unused. Positions of bridges follow the written chain, without caps; N, C: chain ends. Non-standard residues stand in square brackets, D forms with d. Residues, ends and D or L forms follow the SMILES beside them. *: point of attachment. X1 = NC1=N[C@@H]([C@H](N[*:1])C(=O)[*:2])C[C@H](O)N1; ΔAla(Z-3-ureido) = NC(=O)N/C=C(\N)C(=O)O; β3hOrn = NCCC[C@H](N)CC(=O)*; Dap = NC[C@H](N)C(=O)O
Assay: in vitro
Conditions: rat, gh3-tre-luc cells

C=COCC(C)C [Vinyl isobutyl ether]
CC50 at 24 h (AC50 (uM) modified / 1000): > 100 µM

C=COC(=O)C(C)(C)CCCCCC [Vinyl neodecanoate]
CC50 at 24 h (AC50 (uM) modified / 1000): > 90 µM

C=C[Si](OC)(OC)OC [Vinyltrimethoxysilane]
CC50 at 24 h (AC50 (uM) modified / 1000): > 90 µM

NCCC[C@H](N)CC(=O)N[C@H]1CNC(=O)[C@H]([C@H]2C[C@H](O)NC(N)=N2)NC(=O)/C(=C/NC(N)=O)NC(=O)[C@H](CO)NC(=O)[C@H](CO)NC1=O [Viomycin sulfate] (β3hOrn-[Dap]SS[ΔAla(Z-3-ureido)][X1]; lactam 1-C)
CC50 at 24 h (AC50 (uM) modified / 1000): > 50 µM

CC[C@H]1NC(=O)[C@@H](NC(=O)c2ncccc2O)[C@@H](C)OC(=O)[C@H](c2ccccc2)NC(=O)[C@@H]2CC(=O)CCN2C(=O)[C@H](Cc2ccccc2)N(C)C(=O)[C@@H]2CCCN2C1=O [Virginiamycin S1]
CC50 at 24 h (AC50 (uM) modified / 1000): > 50 µM

OCC(CO)N[C@H]1C[C@](O)(CO)[C@@H](O)[C@H](O)[C@H]1O [Voglibose]
CC50 at 24 h (AC50 (uM) modified / 1000): > 50 µM

C[C@@H](c1ncncc1F)[C@](O)(Cn1cncn1)c1ccc(F)cc1F [Voriconazole]
CC50 at 24 h (AC50 (uM) modified / 1000): > 50 µM

CC(=O)CC(c1ccccc1)c1c(O)c2ccccc2oc1=O (centres unmarked) [Warfarin]
CC50 at 24 h (AC50 (uM) modified / 1000): > 90 µM

FC(F)(F)c1cccc(C2=CCN(CCc3ccc4ccccc4c3)CC2)c1 [Xaliproden hydrochloride]
CC50 at 24 h (AC50 (uM) modified / 1000): > 50 µM

O=C(NCCNCC(O)COc1ccc(O)cc1)N1CCOCC1 (centres unmarked) [Xamoterol]
CC50 at 24 h (AC50 (uM) modified / 1000): > 50 µM

CN(CCO)CC(O)Cn1cnc2c1c(=O)n(C)c(=O)n2C (centres unmarked) [Xanthinol niacinate]
CC50 at 24 h (AC50 (uM) modified / 1000): > 50 µM

O=c1c2ccccc2oc2ccccc12 [Xanthone]
CC50 at 24 h (AC50 (uM) modified / 1000): > 90 µM

O=C(O)c1ccccc1-c1ccc(C(F)(F)F)cc1 [Xenalipin]
CC50 at 24 h (AC50 (uM) modified / 1000): > 50 µM

Cc1cccc(C)c1NC(=O)/N=C1\CCCN1C [Xilobam]
CC50 at 24 h (AC50 (uM) modified / 1000): > 50 µM

CCOC(=O)CN[C@@H](C(=O)N1CC[C@H]1C(=O)NCc1ccc(/C(N)=N\O)cc1)C1CCCCC1 [Ximelagatran]
CC50 at 24 h (AC50 (uM) modified / 1000): > 50 µM

Cc1cccc(C)c1NC(=O)c1cc(S(N)(=O)=O)c(Cl)cc1O [Xipamide]
CC50 at 24 h (AC50 (uM) modified / 1000): > 50 µM

Cc1cccc(C)c1N=C1NCCCS1 [Xylazine]
CC50 at 24 h (AC50 (uM) modified / 1000, Tox21_110001=Tox21_110303, viability, 1 nM T3 present, 24 h): > 50 µM

OC[C@@H](O)C(O)[C@@H](O)CO (some centres unmarked) [Xylitol]
CC50 at 24 h (AC50 (uM) modified / 1000): > 90 µM

Cc1cc(C(C)(C)C)cc(C)c1CC1=NCCN1 [Xylometazoline hydrochloride]
CC50 at 24 h (AC50 (uM) modified / 1000): > 20 µM

Cc1occc1C(=O)Nc1ccc(C(=O)N2CCC(F)(F)/C(=C\C(=O)N3CCC(N4CCCCC4)CC3)c3ccccc32)cc1 [YM218]
CC50 at 24 h (AC50 (uM) modified / 1000): 11.8 µM

COc1ccc(/C=C/c2cc(OC)cc(=O)o2)cc1 [Yangonin]
CC50 at 24 h (AC50 (uM) modified / 1000): > 40 µM

O=C(O)[C@@H]1[C@H]2C[C@H]3c4[nH]c5ccccc5c4CCN3C[C@@H]2CC[C@@H]1O [Yohimbic acid monohydrate]
CC50 at 24 h (AC50 (uM) modified / 1000): > 20 µM

COC(=O)[C@@H]1[C@H]2C[C@H]3c4[nH]c5ccccc5c4CCN3C[C@@H]2CC[C@@H]1O [Yohimbine]
CC50 at 24 h (AC50 (uM) modified / 1000): > 50 µM

COP(=O)(OC)O/C(=C\Cl)c1cc(Cl)c(Cl)cc1Cl [Z-Tetrachlorvinphos]
CC50 at 24 h (AC50 (uM) modified / 1000, Tox21_110001=Tox21_301751, viability, 1 nM T3 present, 24 h): > 90 µM

O=C(O)Cc1ccc(OCCNC[C@H](O)c2ccccc2)cc1 [ZD 2079]
CC50 at 24 h (AC50 (uM) modified / 1000): > 50 µM

COc1cc(N)c(Cl)cc1C(=O)NC1CN2CCC1CC2 (centres unmarked) [Zacopride hydrochloride]
CC50 at 24 h (AC50 (uM) modified / 1000): > 50 µM

COc1cc(C(=O)NS(=O)(=O)c2ccccc2C)ccc1Cc1cn(C)c2ccc(NC(=O)OC3CCCC3)cc12 [Zafirlukast]
CC50 at 24 h (AC50 (uM) modified / 1000): 28.8 µM

CC1(CN2CCC(n3c(=O)[nH]c4ccccc43)CC2)OCc2ccccc2-n2cccc21 (centres unmarked) [Zaldaride]
CC50 at 24 h (AC50 (uM) modified / 1000): 32.7 µM

CCN(C(C)=O)c1cccc(-c2ccnc3c(C#N)cnn23)c1 [Zaleplon]
CC50 at 24 h (AC50 (uM) modified / 1000, Tox21_110001=Tox21_111872, viability, 1 nM T3 present, 24 h): > 50 µM

CC(C(=O)O)c1ccc2c(c1)CC(=O)c1ccccc1S2 (centres unmarked) [Zaltoprofen]
CC50 at 24 h (AC50 (uM) modified / 1000): > 50 µM

c1ccc(C(O[C@@H]2CCCN(CCc3ccc4c(c3)OCO4)C2)c2ccccc2)cc1 [Zamifenacin fumarate]
CC50 at 24 h (AC50 (uM) modified / 1000): 26.4 µM

CC(=O)N[C@H]1[C@H]([C@H](O)[C@H](O)CO)OC(C(=O)O)=C[C@@H]1N=C(N)N [Zanamivir]
CC50 at 24 h (AC50 (uM) modified / 1000): > 50 µM

O=C(CCC1CCN(Cc2ccccc2)CC1)c1ccc2c(c1)NCCCC2 [Zanapezil fumerate]
CC50 at 24 h (AC50 (uM) modified / 1000): > 50 µM

CCCOc1ccccc1-c1nc2nn[nH]c2c(=O)[nH]1 [Zaprinast]
CC50 at 24 h (AC50 (uM) modified / 1000): > 50 µM

COc1cc(-c2ccc(=O)[nH]n2)ccc1OC(F)F [Zardaverine]
CC50 at 24 h (AC50 (uM) modified / 1000): > 50 µM

COc1ccc(CCN(C)CCCN2CCc3cc(OC)c(OC)cc3CC2=O)cc1OC [Zatebradine hydrochloride]
CC50 at 24 h (AC50 (uM) modified / 1000): > 50 µM

C[C@H]1CCC[C@H](O)CCCCCc2cc(O)cc(O)c2C(=O)O1 [Zearalanol]
CC50 at 24 h (AC50 (uM) modified / 1000, Tox21_110001=Tox21_110973, viability, 1 nM T3 present, 24 h): > 50 µM
CC50 at 24 h (AC50 (uM) modified / 1000, Tox21_110001=Tox21_201203, viability, 1 nM T3 present, 24 h): 53.6 µM

C[C@H]1CCCC(=O)CCC/C=C/c2cc(O)cc(O)c2C(=O)O1 [Zearalenone]
CC50 at 24 h (AC50 (uM) modified / 1000, Tox21_110001=Tox21_201153, viability, 1 nM T3 present, 24 h): 41.1 µM
CC50 at 24 h (AC50 (uM) modified / 1000, Tox21_110001=Tox21_303510, viability, 1 nM T3 present, 24 h): 23.5 µM

CC1=C(/C=C/C(C)=C/C=C/C(C)=C/C=C/C=C(C)/C=C/C=C(C)/C=C/C2=C(C)C[C@@H](O)CC2(C)C)C(C)(C)C[C@H](O)C1 [Zeaxanthin]
CC50 at 24 h (AC50 (uM) modified / 1000): 28.9 µM

Oc1ccc([C@@H]2CNCc3c2ccc(O)c3O)cc1O [Zelandopam]
CC50 at 24 h (AC50 (uM) modified / 1000): 39.3 µM

O=C(O)Cn1c(=O)n(Cc2ccc(Br)cc2F)c(=O)c2ccc(Cl)cc21 [Zenarestat]
CC50 at 24 h (AC50 (uM) modified / 1000): > 90 µM

CC(c1cc2ccccc2s1)N(O)C(N)=O (centres unmarked) [Zileuton]
CC50 at 24 h (AC50 (uM) modified / 1000): > 90 µM

CN(C)C/C=C(/c1ccc(Br)cc1)c1cccnc1 [Zimeldine dihydrochloride hydrate]
CC50 at 24 h (AC50 (uM) modified / 1000): 35.2 µM

Cc1c(C(N)=O)cc([N+](=O)[O-])cc1[N+](=O)[O-] [Zoalene]
CC50 at 24 h (AC50 (uM) modified / 1000): > 90 µM

C[C@H](CSC(=O)c1ccccc1)C(=O)N1C[C@@H](Sc2ccccc2)C[C@H]1C(=O)O [Zofenopril]
CC50 at 24 h (AC50 (uM) modified / 1000): > 50 µM

c1cc(CN2CCCCC2)cc(OCCCNc2nc3ccccc3s2)c1 [Zolantidine dimaleate]
CC50 at 24 h (AC50 (uM) modified / 1000): 8.26 µM

O=P(O)(O)C(O)(Cn1ccnc1)P(=O)(O)O [Zoledronate]
CC50 at 24 h (AC50 (uM) modified / 1000): > 50 µM

CN(C)CCc1c[nH]c2ccc(C[C@H]3COC(=O)N3)cc12 [Zolmitriptan]
CC50 at 24 h (AC50 (uM) modified / 1000): > 50 µM

Cc1ccc(-c2nc3ccc(C)cn3c2CC(=O)N(C)C)cc1 [Zolpidem]
CC50 at 24 h (AC50 (uM) modified / 1000): > 50 µM

NS(=O)(=O)Cc1noc2ccccc12 [Zonisamide]
CC50 at 24 h (AC50 (uM) modified / 1000): > 50 µM

CN(C)CCOC1=Cc2ccccc2Sc2ccc(Cl)cc21 [Zotepine]
CC50 at 24 h (AC50 (uM) modified / 1000): 6.89 µM

CCC(C)(NC(=O)c1cc(Cl)c(C)c(Cl)c1)C(=O)CCl (centres unmarked) [Zoxamide]
CC50 at 24 h (AC50 (uM) modified / 1000): 15 µM

OCCN1CCN(CC/C=C2/c3ccccc3Sc3ccc(Cl)cc32)CC1 [Zuclopenthixol dihydrochloride]
CC50 at 24 h (AC50 (uM) modified / 1000): 8.55 µM

N#CCc1cccc(C(F)(F)F)c1 [[3-(Trifluoromethyl)phenyl]acetonitrile]
CC50 at 24 h (AC50 (uM) modified / 1000): > 90 µM

CC1=CC[C@H](CC=O)C1(C)C [[(1R)-2,2,3-Trimethylcyclopent-3-en-1-yl]acetaldehyde]
CC50 at 24 h (AC50 (uM) modified / 1000): > 90 µM

CC1(C)[C@H]2CC[C@]1(C)[C@H](O)C2 [[(1S)-endo]-(-)-Borneol]
CC50 at 24 h (AC50 (uM) modified / 1000): > 90 µM

ClC1C(Cl)C(Cl)C(Cl)C(Cl)C1Cl (stereo not drawn) [alpha-1,2,3,4,5,6-Hexachlorocyclohexane]
CC50 at 24 h (AC50 (uM) modified / 1000): > 90 µM

CC(Oc1cc(Cl)ccc1Cl)C(=O)O (stereo not drawn) [alpha-(2,5-Dichlorophenoxy)propionic acid]
CC50 at 24 h (AC50 (uM) modified / 1000): > 90 µM

CCCCC/C(=C\c1ccccc1)CO [alpha-Amylcinnamyl alcohol]
CC50 at 24 h (AC50 (uM) modified / 1000): 46.6 µM

CC1(C)C(/C=C(\Cl)C(F)(F)F)C1C(=O)OC(C#N)c1cccc(Oc2ccccc2)c1 (stereo not drawn) [alpha-Cyhalothrin]
CC50 at 24 h (AC50 (uM) modified / 1000): > 90 µM

— paper PMC6792352, “Limited Chemical Structural Diversity Found to Modulate Thyroid Hormone Receptor in the Tox21 Chemical Library” (Environmental Health Perspectives, 2019)
